Assay results as given in patent publication US20190038588A1, “NOVEL CLASS OF COMPOUNDS FOR THE TREATMENT OF CARDIOVASCULAR DISEASE” (STICHTING KATHOLIEKE UNIVERSITEIT, priority 2016, published 2019).

Assays:
[1] = target: T1, catalytic domain of the human HMG-CoA reductase (Homo sapiens, UniProt P04035); experiment: HMG-CoA reductase activity and inhibition assay (Sigma CS-1090 kit, NADPH oxidation at 340 nm); format: biochemical; conditions: for HMGR activity (% of control) Mean (SEM): compound at 300 nM, n = 3 independent experiments; for IC50: dose-response curve of FIG. 2C, 95%-CI printed in the row below
T1 construct: containing the catalytic domain of the human HMG-CoA reductase; purchased Sigma-Aldrich CS-1090
T1 sequence (P04035 426-888 limits assumed): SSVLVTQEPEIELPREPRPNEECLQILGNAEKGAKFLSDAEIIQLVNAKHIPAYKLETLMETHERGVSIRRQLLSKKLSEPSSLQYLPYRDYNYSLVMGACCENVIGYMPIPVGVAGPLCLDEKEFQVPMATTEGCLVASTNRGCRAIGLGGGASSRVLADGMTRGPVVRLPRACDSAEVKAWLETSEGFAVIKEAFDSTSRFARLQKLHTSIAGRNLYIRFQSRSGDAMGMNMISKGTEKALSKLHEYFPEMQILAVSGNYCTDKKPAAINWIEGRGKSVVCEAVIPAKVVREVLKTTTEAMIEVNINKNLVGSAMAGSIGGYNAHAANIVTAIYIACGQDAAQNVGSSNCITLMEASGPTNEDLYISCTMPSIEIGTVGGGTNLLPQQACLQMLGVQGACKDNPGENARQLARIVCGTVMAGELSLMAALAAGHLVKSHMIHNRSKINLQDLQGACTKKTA
Method: The human HMG-CoA reductase activity and inhibition assays were performed using the HMG-CoA reductase Assay Kit from Sigma-Aldrich (Sigma CS-1090), containing the catalytic domain of the human HMG-CoA reductase. Enzyme activity was determined spectrophotometrically, measuring the oxidation of NADPH at 340 nm. The reaction mixture contained: 0.13 mM HMG-CoA, HMG-CoA reductase, and 50 mM Tris-HCl, (pH 7.5). After 15 min incubation at 37° C., the reaction was started with the addition of 0.13 mM NADPH, and monitored for 30 min. The enzyme activity was determined using the linear domain of the curve. These experiments were generally performed in small reaction volumes to increase throughput. Experiments in larger reaction volumes can improve reliability of obtained values, and are planned.

[2] = target: T2, mitochondrial complex III (Mus musculus, UniProt P00158); experiment: Complex III enzyme activity in mitochondrial fractions of C2C12 cells (cytochrome c reduction at 550 nm); format: biochemical; conditions: compound at 100 μM; background by antimycin A (2.5 μM); n = 3 independent experiments
T2 construct: the supernatant containing the mitochondria was pelleted at 14,000 g; endogenous in cells; host or cells: C2C12 cells, mitochondrial fraction
Method: C2C12 pellets of 20·10^6 cells were snap frozen in liquid nitrogen and kept at −80° C. until use. For preparation of the mitochondrial fractions, tissues and cells were homogenized, resuspended in 10 mM Tris-HCl (pH 7.6), and snap frozen in aliquots as follows: cells were resuspended in 10 mM Tris-HCl and pottered, and sucrose was added (215 mM). The lysate was cleared of unbroken cells by centrifugation (10 minutes 600 g) after which the supernatant containing the mitochondria was pelleted at 14,000 g for 10 minutes, resuspended in 10 mM Tris-HCl (pH 7.6), and snap frozen in aliquots. Complex III enzyme activity was measured spectrophotometrically in duplicate as described before by determination of the cytochrome c reduction at 550 nm (Janssen et al., 2007; Mourmans et al., 1997; Rodenburg, 2011). For these measurements the following substrates were used: decylubiquinol (300 μM) and cytochrome c (50 μM). Background substraction was based on decylubiquinol auto-oxidation rates for FIG. 2, and on antimycin A (2.5 μM) for table 4. The enzyme activity was determined using the linear domain of the curve. These experiments were generally performed in small reaction volumes to increase throughput. Experiments in larger reaction volumes can improve reliability of obtained values, and are planned.

HMGR activity (% of control) Mean (SEM) [1] | complex III activity (% of control) Mean (SEM) [2] | IC50 [1] [nM] | SMILES
72.43 (4.97) % of control | 80.37 (5.13) % of control |  | CCC(C)(C)C(=O)O[C@H]1C[C@@H](C)C=C2C=C[C@H](C)[C@H](CC[C@@H](O)C[C@@H](O)Cc3nnn[nH]3)[C@H]21 [simvastatin tetrazole, (1S,3R,7S,8S,8aR)-8-((3R,5S)-3,5-dihydroxy-6-(1H-tetrazol-5-yl)hexyl)-3,7-dimethyl-1,2,3,7,8,8a-hexahydronaphthalen-1-yl 2,2-dimethylbutanoate]
92.40 (8.84) % of control | 50.43 (5.71) % of control |  | CCC(C)(C)C(=O)O[C@H]1C[C@@H](C)C=C2C=C[C@H](C)[C@H](CC[C@@H](O)C[C@@H](O)CC(=O)NC)[C@H]21 [simvastatin methylamide, (1S,3R,7S,8S,8aR)-8-((3R,5R)-3,5-dihydroxy-7-(methylamino)-7-oxoheptyl)-3,7-dimethyl-1,2,3,7,8,8a-hexahydronaphthalen-1-yl 2,2-dimethylbutanoate]
38.83 (5.19) % of control | 68.59 (5.73) % of control | 39 | CCC(C)(C)C(=O)O[C@H]1C[C@@H](C)C=C2C=C[C@H](C)[C@H](CC[C@@H](O)C[C@@H](O)CC(=O)NO)[C@H]21 [simvastatin hydroxamic acid, (1S,3R,7S,8S,8aR)-8-((3R,5R)-3,5-dihydroxy-7-(hydroxyamino)-7-oxoheptyl)-3,7-dimethyl-1,2,3,7,8,8a-hexahydronaphthalen-1-yl 2,2-dimethylbutanoate]
72.81 (9.03) % of control | 90.25 (7.98) % of control |  | CC(C)c1nc(N(C)S(C)(=O)=O)nc(-c2ccc(F)cc2)c1/C=C/[C@@H](O)C[C@@H](O)CC(=O)NO [rosuvastatin hydroxamic acid, (3R,5S,E)-7-(4-(4-fluorophenyl)-6-isopropyl-2-(N-methylmethylsulfonamido)pyrimidin-5-yl)-N,3,5-trihydroxyhept-6-enamide]
60.87 (4.50) % of control | 105.60 (13.57) % of control |  | CC(C)c1c(C(=O)Nc2ccccc2)c(-c2ccccc2)c(-c2ccc(F)cc2)n1CC[C@@H](O)C[C@@H](O)CC(=O)NO [atorvastatin hydroxamic acid, 1-((3R,5R)-3,5-dihydroxy-7-(hydroxyamino)-7-oxoheptyl)-5-(4-fluorophenyl)-2-isopropyl-N,4-diphenyl-1H-pyrrole-3-carboxamide]
24.09 (3.30) % of control |  |  | CC(C)c1nc(N(C)S(C)(=O)=O)nc(-c2ccc(F)cc2)c1/C=C/[C@@H](O)C[C@@H](O)CC(=O)O [rosuvastatin carboxylic acid, reference compound]
73.44 (2.81) % of control | 74.37 (4.20) % of control |  | CCC(C)(C)C(=O)O[C@H]1C[C@@H](C)C=C2C=C[C@H](C)[C@H](CC[C@@H](O)C[C@@H](O)Cc3nc(=O)o[nH]3)[C@H]21 [simvastatin oxo-oxadiazole, (1S,3R,7S,8S,8aR)-8-((3R,5)-3,5-dihydroxy-6-(5-oxo-2,5-dihydro-1,2,4-oxadiazol-3-yl)hexyl)-3,7-dimethyl-1,2,3,7,8,8a-hexahydronaphthalen-1-yl 2,2-dimethylbutanoate]
110.10 (11.81) % of control | 73.77 (7.57) % of control |  | CCC(C)(C)C(=O)O[C@H]1C[C@@H](C)C=C2C=C[C@H](C)[C@H](CC[C@@H](O)C[C@@H](O)CC(N)=O)[C@H]21 [simvastatin amide, (1S,3R,7S,8S,8aR)-8-((3R,5R)-7-amino-3,5-dihydroxy-7-oxoheptyl)-3,7-dimethyl-1,2,3,7,8,8a-hexahydronaphthalen-1-yl 2,2-dimethylbutanoate]
68.18 (14.81) % of control |  |  | CC[C@H](C)C(=O)O[C@H]1C[C@@H](C)C=C2C=C[C@H](C)[C@H](CC[C@@H](O)C[C@@H](O)CC(=O)O)[C@H]21 [lovastatin carboxylic acid, reference compound]
85.05 (10.36) % of control | 53.24 (1.53) % of control |  | CCC(C)(C)C(=O)O[C@H]1C[C@@H](C)C=C2C=C[C@H](C)[C@H](CC[C@@H](O)C[C@@H](O)CC#N)[C@H]21 [simvastatin nitrile, (1S,3R,7S,8S,8aR)-8-((3R,5S)-6-cyano-3,5-dihydroxyhexyl)-3,7-dimethyl-1,2,3,7,8,8a-hexahydronaphthalen-1-yl 2,2-dimethylbutanoate]
70.19 (6.79) % of control | 92.95 (10.32) % of control |  | CC[C@H](C)C(=O)O[C@H]1C[C@@H](C)C=C2C=C[C@H](C)[C@H](CC[C@@H](O)C[C@@H](O)CC(=O)NO)[C@H]21 [lovastatin hydroxamic acid, (1S,3R,7S,8S,8aR)-8-((3R,5R)-3,5-dihydroxy-7-(hydroxyamino)-7-oxoheptyl)-3,7-dimethyl-1,2,3,7,8,8a-hexahydronaphthalen-1-yl (S)-2-methylbutanoate]
 | 63.21 (3.31) % of control |  | CC[C@H](C)C(=O)O[C@H]1C[C@@H](C)C=C2C=C[C@H](C)[C@H](CC[C@@H]3C[C@@H](O)CC(=O)O3)[C@H]21 [lovastatin lactone, reference compound]
 | 80.98 (3.75) % of control |  | CC(C)c1c(C(=O)Nc2ccccc2)c(-c2ccccc2)c(-c2ccc(F)cc2)n1CC[C@@H]1C[C@H](O)CC(=O)O1 [atorvastatin lactone, 5-(4-fluorophenyl)-1-(2-((2R,4S)-4-hydroxy-6-oxotetrahydro-2H-pyran-2-yl)ethyl)-2-isopropyl-N,4-diphenyl-1H-pyrrole-3-carboxamide, reference compound]
 | 44.55 (6.27) % of control |  | CCC(C)(C)C(=O)O[C@H]1C[C@@H](C)C=C2C=C[C@H](C)[C@H](CC[C@@H]3C[C@@H](O)CC(=O)O3)[C@H]21 [simvastatin lactone, reference compound]
102.30 (10.00) % of control | 104.10 (12.47) % of control |  | CC[C@H](C)C(=O)O[C@H]1C[C@@H](C)C=C2C=C[C@H](C)[C@H](CC[C@@H](O)C[C@@H](O)CC(N)=O)[C@H]21 [lovastatin amide, (1S,3R,7S,8S,8aR)-8-((3R,5R)-7-amino-3,5-dihydroxy-7-oxoheptyl)-3,7-dimethyl-1,2,3,7,8,8a-hexahydronaphthalen-1-yl (S)-2-methylbutanoate]
24.39 (8.91) % of control |  |  | CC(C)c1c(C(=O)Nc2ccccc2)c(-c2ccccc2)c(-c2ccc(F)cc2)n1CC[C@@H](O)C[C@@H](O)CC(=O)O [atorvastatin carboxylic acid, reference compound]
63.10 (10.70) % of control |  | 39 | CCC(C)(C)C(=O)O[C@H]1C[C@@H](C)C=C2C=C[C@H](C)[C@H](CC[C@@H](O)C[C@@H](O)CC(=O)O)[C@H]21 [simvastatin carboxylic acid, reference compound]
